Paper PMC12876990, “Targeting secreted PLA2 interactions with EGFR and vimentin to arrest prostate tumour growth” (Cell Death & Disease, 2025)
Square brackets hold non-standard residues; d marks the D form. Peptide text beside a SMILES is read from it. 2Nal = N[C@@H](Cc1ccc2ccccc2c1)C(=O)O

Key:
[1] = test system: PCa cell lines LNCaP, PC-3 and DU145; assay: Cell permeability of c2 by live cell confocal imaging of its autofluorescence; assay type: cell-based; conditions: 100 µM, 24 hours
Method: The naphthyl groups in the structure of c2 give the compound a unique autofluorescence emission spectral signature, which was characterised (Fig. S3a, b), allowing the direct imaging of c2 internalisation and localisation. […] Internalisation confirmed via z-stack (Fig. S3c).
For all live cell imaging, cells were seeded on a 24-well glass-bottom Senso plates (Greiner Bio-one) and imaged at 37 °C and 5% CO2 with the LSM 800 (Zeiss). For c2 imaging, cells were incubated with c2 100 µM for 24 hours before excitation with 488 nm and emission 500-700 nm detected. For hGIIA entry, PC-3, LNCaP, DU145 and RA57 hGIIA/AF647 in cells were stained with 30 nM DAPI for 10 mins, cells were washed with PBS and then stained with 1 μg/mL of propidium iodide for 10 mins to confirm cell viability. Cells were washed three times with PBS and then cells were incubated with 200 ng/mL hGIIA/AF647, with entry imaged over 16 hours. Imaging parameters were kept consistent across all time points and cell lines.

[2] = 28-day oral toxicity study: urinalysis; assay type: in vivo, male Sprague Dawley rats
Text: Haematology and Biochemistry).
Urine was collected at the end of the study (on Days 29 and 43 for main and recovery groups, respectively) by placing a urine collection tube at the opening of the urethra and any urine expressed by the animal wa s collected. If no urine came out, pressure was gently applied on the bladder area of the abdomen.
Urine was also collected by bladder puncture at the time of death to maximise the volume collected. The animal was placed in lateral recumbency and the abdominal cavity opened. A needle attached to the syringe w as in serted int o the bladder and urine withdrawn with the plunger. The urine sample was expelled from the syringe into the collection tube.
The urine samples were an alysed, individual re su lts are pres ented a s an appendix to the report (Appendix C Study Data Spreadsheets). […]

[3] = Day 43, Gr 5 recovery, 20 mg/kg

CC(C)C[C@@H]1NC(=O)[C@H](Cc2ccc3ccccc3c2)NC(=O)[C@H](CCCNC(=N)N)NC(=O)[C@H](Cc2ccc3ccccc3c2)NC(=O)[C@H](CO)NC1=O [c2, cyclo-((2-Nal)-Leu-Ser-(2-Nal)-Arg)] (cyclo([2Nal]LS[2Nal]R))
c2 detection in cells [1]: detected in all cell lines
Urine bilirubin: animals Negative ([2]; Day 29, Gr 2, 1 mg/kg): 8/8
Urine blood: animals Negative ([2]; Day 29, Gr 2, 1 mg/kg): 8/8
Urine glucose: animals Negative ([2]; Day 29, Gr 2, 1 mg/kg): 8/8
Urine ketone: animals Small ([2]; Day 29, Gr 2, 1 mg/kg): 1/8
Urine ketone: animals Trace ([2]; Day 29, Gr 2, 1 mg/kg): 5/8
Urine leucocytes: animals Negative ([2]; Day 29, Gr 2, 1 mg/kg): 8/8
Urine nitrite: animals Negative ([2]; Day 29, Gr 2, 1 mg/kg): 8/8
Urine protein: animals 1+ ([2]; Day 29, Gr 2, 1 mg/kg): 4/8
Urine protein: animals 2+ ([2]; Day 29, Gr 2, 1 mg/kg): 2/8
Urine protein: animals Trace ([2]; Day 29, Gr 2, 1 mg/kg): 2/8
Urobilinogen: animals Normal ([2]; Day 29, Gr 2, 1 mg/kg): 8/8
Urine bilirubin: animals Negative ([2]; Day 29, Gr 3, 20 mg/kg): 9/9
Urine blood: animals Negative ([2]; Day 29, Gr 3, 20 mg/kg): 9/9
Urine glucose: animals Negative ([2]; Day 29, Gr 3, 20 mg/kg): 9/9
Urine ketone: animals Negative ([2]; Day 29, Gr 3, 20 mg/kg): 1/9
Urine ketone: animals Small ([2]; Day 29, Gr 3, 20 mg/kg): 4/9
Urine ketone: animals Trace ([2]; Day 29, Gr 3, 20 mg/kg): 4/9
Urine leucocytes: animals Negative ([2]; Day 29, Gr 3, 20 mg/kg): 9/9
Urine nitrite: animals Negative ([2]; Day 29, Gr 3, 20 mg/kg): 9/9
Urine protein: animals 1+ ([2]; Day 29, Gr 3, 20 mg/kg): 7/9
Urine protein: animals 2+ ([2]; Day 29, Gr 3, 20 mg/kg): 2/9
Urobilinogen: animals Normal ([2]; Day 29, Gr 3, 20 mg/kg): 9/9
urine parameters ([2]; Day 29 and Day 43): no obvious effects
Urine bilirubin: animals Negative [2, 3]: 5/5
Urine blood: animals Negative [2, 3]: 3/5
Urine blood: animals Small [2, 3]: 1/5
Urine blood: animals Trace [2, 3]: 1/5
Urine glucose: animals Negative [2, 3]: 5/5
Urine ketone: animals Negative [2, 3]: 2/5
Urine ketone: animals Trace [2, 3]: 3/5
Urine leucocytes: animals Negative [2, 3]: 5/5
Urine nitrite: animals Negative [2, 3]: 5/5
Urine protein: animals 1+ [2, 3]: 2/5
Urine protein: animals 2+ [2, 3]: 1/5
Urine protein: animals Negative [2, 3]: 2/5
Urobilinogen: animals Normal [2, 3]: 5/5
